One series deals with T1, human CRTH2 (Homo sapiens, UniProt Q9Y5Y4).
T1 construct: expressed in transfected cells; host or cells: L1.2 cells, pEAK expression vector, puromycin-selected
T1 sequence (Q9Y5Y4 1-395): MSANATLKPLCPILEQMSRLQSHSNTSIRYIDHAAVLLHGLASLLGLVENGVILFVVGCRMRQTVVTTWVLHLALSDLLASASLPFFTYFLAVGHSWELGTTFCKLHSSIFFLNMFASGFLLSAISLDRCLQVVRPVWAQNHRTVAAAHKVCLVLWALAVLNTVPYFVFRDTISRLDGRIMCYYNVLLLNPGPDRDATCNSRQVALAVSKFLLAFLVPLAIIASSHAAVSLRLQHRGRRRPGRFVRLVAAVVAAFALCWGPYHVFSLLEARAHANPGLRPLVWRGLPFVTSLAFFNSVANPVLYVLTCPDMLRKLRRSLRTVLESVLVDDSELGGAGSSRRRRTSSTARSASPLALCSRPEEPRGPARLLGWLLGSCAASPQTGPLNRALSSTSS
As to the kind of experiment: Measurement of Ca2+ mobilization in the human CRTH2-transfected L1.2 cell line (Assay 1). In kind it is cell-based. Conditions: PGD2-induced Ca2+ mobilization in CRTH2-transfected L1.2 cells; compounds as yielded by solid phase synthesis, purity about 40 to 90%; read-out: Activity class. How it is done: Human CRTH2 cDNA was amplified from human eosinophil cDNA with gene specific primers containing restriction sites for cloning into pEAK vector (Edge Bio Systems). The human CRTH2 cDNA was cloned into the mammalian expression vector pEAK. This expression plasmid (40 μg) was transfected into L1.2 cells, at a cell density of 1×10^7 cells/500 μl, by using electroporation apparatus (Gene Pulser II, BioRad) at 250V/1,000 μF. One day after the transfection, puromycin (1 μg/ml, Sigma) was added into the cell culture plates. Two weeks after the transfection, grown cells were picked up for further growth.
[Measurement of Ca^2+ Mobilization in the Human CRTH2-Transfected L1.2 Cell Line] (Assay 1)
Ca^2+ loading buffer was prepared by mixing 5 μl of Fluo-3AM (2 mM in DMSO, final 1 μM, Molecular Probes) and 10 μl of pluronic F-127 (Molecular Probes) and diluting the resulting mixture in 10 ml of Ca^2+ assay buffer (20 mM HEPES pH 7.6, 0.1% BSA, 1 mM probenecid, Hanks' solution). The CRTH2 transfected cells which were prepared in Example 1 were washed with PBS, resuspended in Ca^2+ loading buffer at 1×10^7 cells/ml, and incubated for 60 min at room temperature. After incubation, cells were washed and resuspended in Ca^2+ assay buffer, then dispensed into transparent-bottom 96-well plates (#3631, Costar) at 2×10^5 cells/well. Cells were incubated with various concentrations of test compound for 5 minutes at room temperature. The emitted 480 nm fluorescence was measured on FDSS6000, a Ca^2+-measurement apparatus (Hamamatsu Photonics, Hamamatsu, Japan).
Assay results in Assay 1 are shown in Examples and tables of the Examples below. The data corresponds to the compounds as yielded by solid phase synthesis and thus to levels of purity of about 40 to 90%. For practical reasons, the compounds are grouped in four classes of activity as follows: IC50=A(< or =)10 nM<B(< or =)100 nM<C(< or =)500 nM<D
(In general: Calcium assays in cells follow changes in intracellular calcium, usually with a dye or a luminescent sensor.)

Bounds are passed on as bounds.

`CN(CC(=O)NC1CCCC1)c1nc(Cc2ccc(NC(=O)c3ccccn3)cc2)nc(Cl)c1CC(=O)O` [Example 1-2] registered a melting point greater than 135 °C. Besides, at human CRTH2, the IC50 is greater than 500 nM.

Compound `CN(CC(=O)N1CCCC1)c1nc(Cc2ccc(NC(=O)c3ccc4ccccc4c3)cc2)nc(Cl)c1CC(=O)O` [Example 1-3] returned a melting point of 177 °C. In addition, the IC50 at human CRTH2 is less than 10 nM.

Take `CN(CC(=O)NC1CCCC1)c1nc(Cc2ccc(NC(=O)c3cccnc3)cc2)nc(Cl)c1CC(=O)O` [Example 1-4]: the melting point was greater than 174 °C. Moreover, the IC50 at human CRTH2 is greater than 500 nM.

In the case of `CC(C)C(=O)Nc1ccc(Cc2nc(Cl)c(CC(=O)O)c(N(C)CC(=O)NC3CCCC3)n2)cc1` [Example 1-5], the melting point is greater than 142 °C. For the same compound, the IC50 on human CRTH2 was greater than 500 nM.

Consider `CN(CC(=O)NC1CCCC1)c1nc(Cc2ccc(NC(=O)C3CC3)cc2)nc(Cl)c1CC(=O)O` [Example 1-6], for which the melting point was greater than 146 °C. In addition, on human CRTH2, the IC50 was greater than 500 nM.

Compound `CC(C)NC(=O)CN(C)c1nc(Cc2ccc(NC(=O)c3ccc4ccccc4c3)cc2)nc(Cl)c1CC(=O)O` [Example 1-7] had a melting point of 181 °C. For the same compound, the IC50 at human CRTH2 is less than 10 nM.

`CN(CC(=O)NC1CCCCC1)c1nc(Cc2ccc(NC(=O)c3ccc4ccccc4c3)cc2)nc(Cl)c1CC(=O)O` [Example 1-8] showed a melting point of 134 °C. Moreover, the IC50 on human CRTH2 is less than 10 nM.

`CN(CC(=O)NC1CCCC1)c1nc(Cc2ccc(NC(=O)c3ccccc3)cc2)nc(Cl)c1CC(=O)O` [Example 1-9] displayed a melting point greater than 140 °C. For the same compound, on human CRTH2, the IC50 fell in the range of 10 to 100 nM.

The compound `CC(=O)Nc1ccc(Cc2nc(Cl)c(CC(=O)O)c(N(C)CC(=O)NC3CCCC3)n2)cc1` [Example 1-10] yielded a melting point greater than 118 °C. Further, the IC50 on human CRTH2 is greater than 500 nM.

As for `CN(CC(=O)NC1CCCC1)c1nc(Cc2ccc(NC(=O)c3ccco3)cc2)nc(Cl)c1CC(=O)O` [Example 1-11], the melting point was greater than 119 °C. For the same compound, the IC50 at human CRTH2 is 100 to 500 nM.

With `CCCCCC(=O)Nc1ccc(Cc2nc(Cl)c(CC(=O)O)c(N(C)CC(=O)NC3CCCC3)n2)cc1` [Example 1-12], the melting point was greater than 100 °C. At human CRTH2, the IC50 lay in the range of 100 to 500 nM.

Compound `CN(CC(=O)NC1CCCC1)c1nc(Cc2ccc(NC(=O)CC3CCCCC3)cc2)nc(Cl)c1CC(=O)O` [Example 1-13] gave a melting point greater than 149 °C. On human CRTH2, the IC50 was in the range of 10 to 100 nM.

`CN(CC(=O)NC1CCCC1)c1nc(Cc2ccc(NC(=O)CCc3ccccc3)cc2)nc(Cl)c1CC(=O)O` [Example 1-14] gave a melting point greater than 139 °C. The IC50 at human CRTH2 is less than 10 nM.

Regarding `Cc1ccc(CC(=O)Nc2ccc(Cc3nc(Cl)c(CC(=O)O)c(N(C)CC(=O)NC4CCCC4)n3)cc2)cc1` [Example 1-15], the melting point was greater than 116 °C. Besides, the IC50 on human CRTH2 fell in the range of 10 to 100 nM.

On to `CN(CC(=O)NC1CCCC1)c1nc(Cc2ccc(NC(=O)c3ccc4ccccc4n3)cc2)nc(Cl)c1CC(=O)O` [Example 1-16], for which the melting point amounted to 137 °C. In addition, the IC50 at human CRTH2 was less than 10 nM.

`CN(CC(=O)NC1CCCC1)c1nc(Cc2ccc(NC(=O)/C=C/c3ccccc3)cc2)nc(Cl)c1CC(=O)O` [Example 1-17] registered a melting point of 142 °C. The IC50 on human CRTH2 was less than 10 nM.

On to `CN(CC(=O)NC1CCCC1)c1nc(Cc2ccc(NC(=O)c3ccc(Cl)cc3)cc2)nc(Cl)c1CC(=O)O` [Example 1-18], for which the melting point was 143 °C. Moreover, the IC50 on human CRTH2 was less than 10 nM.

For `CN(CC(=O)NC1CCCC1)c1nc(Cc2ccc(NC(=O)c3ccc(Cl)c(Cl)c3)cc2)nc(Cl)c1CC(=O)O` [Example 1-19], the melting point amounted to 144 °C. In addition, the IC50 at human CRTH2 is less than 10 nM.

For the compound `COc1ccc(C(=O)Nc2ccc(Cc3nc(Cl)c(CC(=O)O)c(N(C)CC(=O)NC4CCCC4)n3)cc2)cc1` [Example 1-20], the melting point is 104 °C. Further, the IC50 on human CRTH2 was less than 10 nM.

For the compound `Cc1ccc(C(=O)Nc2ccc(Cc3nc(Cl)c(CC(=O)O)c(N(C)CC(=O)NC4CCCC4)n3)cc2)cc1` [Example 1-21], the melting point is 125 °C. The IC50 on human CRTH2 is less than 10 nM.

The compound `CN(CC(=O)NC1CCCC1)c1nc(Cc2ccc(NC(=O)c3cccc4ccccc34)cc2)nc(Cl)c1CC(=O)O` [Example 1-22] registered a melting point of 136 °C. At human CRTH2, the IC50 was 10 to 100 nM.

Compound `CN(CC(=O)NC1CCCC1)c1nc(Cc2ccc(NS(=O)(=O)c3ccc4ccccc4c3)cc2)nc(Cl)c1CC(=O)O` [Example 1-23] yielded a melting point of 116 °C. The IC50 at human CRTH2 was greater than 500 nM.

As for `CN(CC(=O)NC1CCCC1)c1nc(Cc2ccc(NC(=O)Cc3ccc(-c4ccccc4)cc3)cc2)nc(Cl)c1CC(=O)O` [Example 1-24], the melting point came to 124 °C. Moreover, the IC50 on human CRTH2 fell in the range of 100 to 500 nM.

`CN(CC(=O)NC1CCCC1)c1nc(Cc2ccc(NC(=O)c3cc4ccccc4o3)cc2)nc(Cl)c1CC(=O)O` [Example 1-25] gave a melting point of 118 °C. For the same compound, the IC50 at human CRTH2 was less than 10 nM.

`CN(CC(=O)NC1CCCC1)c1nc(Cc2ccc(NC(=O)c3cc4ccccc4[nH]3)cc2)nc(Cl)c1CC(=O)O` [Example 1-26] had a melting point of 146 °C. In addition, on human CRTH2, the IC50 is less than 10 nM.

Compound `CN(CC(=O)NC1CCCC1)c1nc(Cc2ccc(NC(=O)c3ccc(C#N)cc3)cc2)nc(Cl)c1CC(=O)O` [Example 1-27] yielded a melting point of 101 °C. The IC50 on human CRTH2 was less than 10 nM.

With `CN(CC(=O)NC1CCCC1)c1nc(Cc2ccc(NC(=O)CC3Cc4ccccc4C3)cc2)nc(Cl)c1CC(=O)O` [Example 1-28], the melting point was greater than 110 °C. Besides, on human CRTH2, the IC50 was less than 10 nM.

Take `CN(CC(=O)NC1CCCC1)c1nc(Cc2ccc(NC(=O)Cc3ccc4c(c3)OCO4)cc2)nc(Cl)c1CC(=O)O` [Example 1-29]: the melting point is greater than 120 °C. Besides, at human CRTH2, the IC50 lay within 100 to 500 nM.

As to `CN(CC(=O)NC1CCCC1)c1nc(Cc2ccc(NC(=O)Cc3cccc(Oc4ccccc4)c3)cc2)nc(Cl)c1CC(=O)O` [Example 1-30], the melting point was greater than 118 °C. For the same compound, the IC50 on human CRTH2 is less than 10 nM.

Consider `CN(CC(=O)NC1CCCC1)c1nc(Cc2ccc(NC(=O)Cc3ccc(Oc4ccccc4)cc3)cc2)nc(Cl)c1CC(=O)O` [Example 1-31], for which the melting point is greater than 123 °C. Further, the IC50 at human CRTH2 lay in the range of 10 to 100 nM.

`CN(C)c1nc(Cc2ccc(NC(=O)c3ccc4ccccc4n3)cc2)nc(Cl)c1CC(=O)O` [Example 1-32] gave a melting point of 135 to 142 °C. In addition, the IC50 on human CRTH2 was less than 10 nM.

In the case of `CN(C)c1nc(Cc2ccc(NC(=O)/C=C/c3ccccc3)cc2)nc(Cl)c1CC(=O)O` [Example 1-33], the melting point was greater than 160 °C. The IC50 on human CRTH2 was less than 10 nM.

On to `CN(C)c1nc(Cc2ccc(NC(=O)c3ccc4ccccc4c3)cc2)ncc1CC(=O)O` [Example 2-1, {4-(Dimethylamino)-2-[4-(2-naphthoylamino)benzyl]pyrimidin-5-yl}acetic acid], for which the melting point was determined as 210 °C.

Take `Cc1nc(Cc2ccc(NC(=O)c3ccc(Cl)c(Cl)c3)cc2)nc(N(C)C)c1CC(=O)O` [Example 8-4]: the IC50 on human CRTH2 is less than 10 nM.

For the compound `Cc1nc(Cc2ccc(NC(=O)/C=C/c3ccccc3)cc2)nc(N(C)C)c1CC(=O)O` [Example 8-5], the IC50 at human CRTH2 was less than 10 nM.

Consider `CN(C)c1nc(Cc2ccc(NC(=O)OCc3ccc([N+](=O)[O-])cc3)cc2)ncc1CC(=O)O` [Example 9-4], for which the IC50 at human CRTH2 was in the range of 10 to 100 nM.

`CN(C)c1nc(Cc2ccc(NC(=O)c3ccc4ccccc4c3)cc2)nc(Cl)c1CC(N)=O` [Example 11, N-(4-{[5-(2-Amino-2-oxoethyl)-4-chloro-6-(dimethylamino)pyrimidin-2-yl]methyl}phenyl)-2-naphthamide] returned a melting point of 189 to 190 °C.

Take `CN(C)c1nc(Cc2ccc(NC(=O)c3ccc4ccccc4c3)cc2)nc(Cl)c1CC#N` [Example 12, N-(4-{[4-Chloro-5-(cyanomethyl)-6-(dimethylamino)pyrimidin-2-yl]methyl}phenyl)-2-naphthamide]: the IC50 at human CRTH2 was 100 to 500 nM.

Usually melting point stands for the temperature of the solid-liquid transition.

For the origin of these results see patent publication US7960393B2, “Pyrimidine derivatives useful for the treatment of diseases mediated by CRTH2” (Actimis Pharmaceuticals, Inc., priority 2002, dated 2011).
